Key:
canine parvovirus = assay: treatment of canine parvovirus; type: in vivo, dogs; set-up: White blood cell count: unit not given here; settings: 14 days, n = 10
Method: (§1) Anemoside B4 injection prepared in example 3, with a concentration of 50 mg/mL.
Dogs suffering from canine parvovirus are cases received by various pet hospitals in Chengdu.
In the early, dogs have high temperature and vomit violently. The vomit changes from white to yellow, and finally to green, with a small amount of blood streak; eyes' conjunctival congestion and tears; liking drinking water and vomiting after drinking; fecal jets are like tomato sauce, smelly and unpleasant; preferring to lie down; the number of white blood cells dropped sharply, together with severe dehydration, heart failure, and shock to death.
(§2) Anemoside B4 injection was intravenously injected, 2 mL/time in low-dose group, 4 mL/time in medium-dose group, 8 mL/time in high-dose group, once a day; anemoside B4 injection was intramuscularly injected, 1 mL/time in low-dose group, 2 mL/time in the middle-dose group, 4 mL/time in the high-dose group, twice a day; the treatment was kept for 14 days.

canine acute nephritis = assay: treatment of canine acute nephritis; type: in vivo, dogs; settings: 14 days, n = 10; for Positive rate of white blood cell (+++, %): urine
Method: as §1
Dogs suffering from acute nephritis are cases received by various pet hospitals in Chengdu city.
The sick dogs are characterized by loss of appetite, indigestion, depression, and a slight increase in body temperature.
as §2

feline parvovirus = assay: treatment of feline parvovirus; type: in vivo, cats; set-up: White blood cell count: unit not given here; settings: 14 days, n = 10
Method: as §1
Cats suffering from feline parvovirus are cases received by various pet hospitals in Chengdu.
Cats occasionally having fever, severe vomiting, and diarrhea; the stool changing from gray to yellow and finally to milky white, accompanied by jelly-like mucus; stools liking tomato sauce, smelly and unpleasant; having a lying prone; the number of white blood cells dropping sharply, cold limbs, highly depressed spirit, then shock to death.
as §2

canine renal failure = assay: treatment of canine renal failure; type: in vivo, dogs; settings: 14 days, n = 10
cow foot rot disease = assay: treatment of cow foot rot disease; type: in vivo, cows; settings: for Milk production (daily yield) / Total number of cured cows: n = 10
[1] = high-dose, intramuscular injection 4 mL/time (50 mg/mL), twice a day
[2] = high-dose, intravenous injection 8 mL/time (50 mg/mL), once a day
[3] = low-dose, intramuscular injection 1 mL/time (50 mg/mL), twice a day
[4] = low-dose, intravenous injection 2 mL/time (50 mg/mL), once a day
[5] = medium-dose, intramuscular injection 2 mL/time (50 mg/mL), twice a day
[6] = medium-dose, intravenous injection 4 mL/time (50 mg/mL), once a day
[7] = high-dose, intravenous injection 60 mL (50 mg/mL), once a day, 4 days
[8] = high-dose, pulvis 1.5 g, external application, once every other day, 4 times
[9] = high-dose, subcutaneous injection 15 mL (50 mg/mL) in affected limbs, once a day, 4 days
[10] = low-dose, intravenous injection 20 mL (50 mg/mL), once a day, 4 days
[11] = low-dose, pulvis 0.5 g, external application, once every other day, 4 times
[12] = low-dose, subcutaneous injection 5 mL (50 mg/mL) in affected limbs, once a day, 4 days
[13] = medium-dose, intravenous injection 40 mL (50 mg/mL), once a day, 4 days
[14] = medium-dose, pulvis 1.0 g, external application, once every other day, 4 times
[15] = medium-dose, subcutaneous injection 10 mL (50 mg/mL) in affected limbs, once a day, 4 days

C=C(C)[C@@H]1CC[C@]2(C(=O)O[C@@H]3O[C@H](CO[C@@H]4O[C@H](CO)[C@@H](O[C@@H]5O[C@@H](C)[C@H](O)[C@@H](O)[C@H]5O)[C@H](O)[C@H]4O)[C@@H](O)[C@H](O)[C@H]3O)CC[C@]3(C)[C@H](CC[C@@H]4[C@@]5(C)CC[C@H](O[C@@H]6OC[C@H](O)[C@H](O)[C@H]6O[C@@H]6O[C@@H](C)[C@H](O)[C@@H](O)[C@H]6O)[C@@](C)(CO)[C@@H]5CC[C@]43C)[C@H]12 [anemoside B4]
Body temperature (canine parvovirus; [1]): 37.8 ± 0.4 °C
Mortality rate (canine parvovirus; [1]): 50%
White blood cell count (canine parvovirus; [1]): 6.2 ± 0.5 ×10^9
Body temperature (canine parvovirus; [2]): 37.4 ± 0.2 °C
Mortality rate (canine parvovirus; [2]): 30%
White blood cell count (canine parvovirus; [2]): 8.2 ± 0.7 ×10^9
Body temperature (canine parvovirus; [3]): 39.2 ± 0.5 °C
Mortality rate (canine parvovirus; [3]): 80%
White blood cell count (canine parvovirus; [3]): 3.3 ± 0.3 ×10^9
Body temperature (canine parvovirus; [4]): 38.2 ± 0.5 °C
Mortality rate (canine parvovirus; [4]): 50%
White blood cell count (canine parvovirus; [4]): 6.3 ± 0.4 ×10^9
Body temperature (canine parvovirus; [5]): 38.4 ± 0.3 °C
Mortality rate (canine parvovirus; [5]): 60%
White blood cell count (canine parvovirus; [5]): 4.6 ± 0.8 ×10^9
Body temperature (canine parvovirus; [6]): 37.6 ± 0.3 °C
Mortality rate (canine parvovirus; [6]): 40%
White blood cell count (canine parvovirus; [6]): 7.6 ±0.6 ×10^9
Body temperature (canine acute nephritis; [1]): 39.0 ± 0.2 °C
Mortality rate (canine acute nephritis; [1]): 50%
Positive rate of urine protein (+++, %) (canine acute nephritis; [1]): 60%
Urine specific gravity (canine acute nephritis; [1]): 1.064 ± 0.02
Body temperature (canine acute nephritis; [2]): 38.5 ± 0.4 °C
Mortality rate (canine acute nephritis; [2]): 30%
Positive rate of urine protein (+++, %) (canine acute nephritis; [2]): 30%
Urine specific gravity (canine acute nephritis; [2]): 1.003 ± 0.01
Body temperature (canine acute nephritis; [3]): 39.5 ± 0.3 °C
Mortality rate (canine acute nephritis; [3]): 60%
Positive rate of urine protein (+++, %) (canine acute nephritis; [3]): 80%
Urine specific gravity (canine acute nephritis; [3]): 1.123 ± 0.01
Body temperature (canine acute nephritis; [4]): 38.7 ± 0.5 °C
Mortality rate (canine acute nephritis; [4]): 50%
Positive rate of urine protein (+++, %) (canine acute nephritis; [4]): 50%
Urine specific gravity (canine acute nephritis; [4]): 1.017 ± 0.25
Body temperature (canine acute nephritis; [5]): 39.3 ± 0.4 °C
Mortality rate (canine acute nephritis; [5]): 60%
Positive rate of urine protein (+++, %) (canine acute nephritis; [5]): 70%
Urine specific gravity (canine acute nephritis; [5]): 1.094 ± 0.04
Body temperature (canine acute nephritis; [6]): 38.8 ± 0.3 °C
Mortality rate (canine acute nephritis; [6]): 40%
Positive rate of urine protein (+++, %) (canine acute nephritis; [6]): 40%
Urine specific gravity (canine acute nephritis; [6]): 1.005 ± 0.09
Positive rate of white blood cell (+++, %) (canine acute nephritis; [1]): 70%
Positive rate of white blood cell (+++, %) (canine acute nephritis; [2]): 30%
Positive rate of white blood cell (+++, %) (canine acute nephritis; [3]): 80%
Positive rate of white blood cell (+++, %) (canine acute nephritis; [4]): 60%
Positive rate of white blood cell (+++, %) (canine acute nephritis; [5]): 80%
Positive rate of white blood cell (+++, %) (canine acute nephritis; [6]): 40%
Mortality rate (feline parvovirus; [1]): 50%
White blood cell count (feline parvovirus; [1]): 9.1 ± 0.5 ×10^9
Mortality rate (feline parvovirus; [2]): 40%
White blood cell count (feline parvovirus; [2]): 9.3 ± 0.9 ×10^9
Mortality rate (feline parvovirus; [3]): 90%
White blood cell count (feline parvovirus; [3]): 4.7 ± 0.3 ×10^9
Mortality rate (feline parvovirus; [4]): 80%
White blood cell count (feline parvovirus; [4]): 7.7 ± 0.4 ×10^9
Mortality rate (feline parvovirus; [5]): 70%
White blood cell count (feline parvovirus; [5]): 7.8 ± 0.6 ×10^9
Mortality rate (feline parvovirus; [6]): 60%
White blood cell count (feline parvovirus; [6]): 8.8 ± 0.7 ×10^9
Body temperature (canine renal failure; [1]): 38.5 ± 0.2 °C
Creatinine (canine renal failure; [1]): 100 ± 30 µmol/L
Inorganic phosphous (canine renal failure; [1]): 1.4 ± 0.08 mmol/L
Mortality rate (canine renal failure; [1]): 40%
Urea (canine renal failure; [1]): 14.2 ± 0.4 mmol/L
Body temperature (canine renal failure; [2]): 38.6 ± 0.4 °C
Creatinine (canine renal failure; [2]): 109 ± 20 µmol/L
Inorganic phosphous (canine renal failure; [2]): 0.9 ± 0.06 mmol/L
Mortality rate (canine renal failure; [2]): 20%
Urea (canine renal failure; [2]): 8.7 ± 0.3 mmol/L
Body temperature (canine renal failure; [3]): 37.8 ± 0.3 °C
Creatinine (canine renal failure; [3]): 130 ± 19 µmol/L
Inorganic phosphous (canine renal failure; [3]): 1.6 ± 0.02 mmol/L
Mortality rate (canine renal failure; [3]): 60%
Urea (canine renal failure; [3]): 20.8 ± 0.5 mmol/L
Body temperature (canine renal failure; [4]): 38.3 ± 0.5 °C
Creatinine (canine renal failure; [4]): 117 ± 25 µmol/L
Inorganic phosphous (canine renal failure; [4]): 1.1 ± 0.05 mmol/L
Mortality rate (canine renal failure; [4]): 40%
Urea (canine renal failure; [4]): 11.8 ± 0.6 mmol/L
Body temperature (canine renal failure; [5]): 38.2 ± 0.4 °C
Creatinine (canine renal failure; [5]): 120 ± 26 µmol/L
Inorganic phosphous (canine renal failure; [5]): 2.0 ± 0.03 mmol/L
Mortality rate (canine renal failure; [5]): 50%
Urea (canine renal failure; [5]): 17.5 ± 0.7 mmol/L
Body temperature (canine renal failure; [6]): 38.5 ± 0.3 °C
Creatinine (canine renal failure; [6]): 115 ± 12 µmol/L
Inorganic phosphous (canine renal failure; [6]): 1.5 ± 0.04 mmol/L
Mortality rate (canine renal failure; [6]): 30%
Urea (canine renal failure; [6]): 9.9 ± 0.8 mmol/L
cure rate (cow foot rot disease; high-dose subcutaneous injection group, middle- and high-dose pulvis groups): above 80%
Milk production (daily yield) (cow foot rot disease; [7]): 22.2 ± 1.5 kg/cow
Total number of cured cows (cow foot rot disease; [7]): 6
Milk production (daily yield) (cow foot rot disease; [8]): 25.9 ± 2.4 kg/cow
Total number of cured cows (cow foot rot disease; [8]): 9
Milk production (daily yield) (cow foot rot disease; [9]): 25.6 ± 2.8 kg/cow
Total number of cured cows (cow foot rot disease; [9]): 8
Milk production (daily yield) (cow foot rot disease; [10]): 18.2 ± 1.4 kg/cow
Total number of cured cows (cow foot rot disease; [10]): 4
Milk production (daily yield) (cow foot rot disease; [11]): 22.6 ± 2.5 kg/cow
Total number of cured cows (cow foot rot disease; [11]): 6
Milk production (daily yield) (cow foot rot disease; [12]): 20.4 ± 1.9 kg/cow
Total number of cured cows (cow foot rot disease; [12]): 5
Milk production (daily yield) (cow foot rot disease; [13]): 20.8 ± 2.2 kg/cow
Total number of cured cows (cow foot rot disease; [13]): 5
Milk production (daily yield) (cow foot rot disease; [14]): 24.2 ± 1.7 kg/cow
Total number of cured cows (cow foot rot disease; [14]): 8
Milk production (daily yield) (cow foot rot disease; [15]): 22.1 ± 1.6 kg/cow
Total number of cured cows (cow foot rot disease; [15]): 7

— US11510933B2, “Use of Pulsatilla chinensis extract in the preparation of drugs for treatment of viral and/or bacterial diseases” (priority 2018, dated 2022)
